As usually defined, the IC50 is the concentration that inhibits the measured activity by half. By inhibition is commonly meant the change of the read-out against control, counted positive when it falls. Broadly, the melting point is the temperature, or range, at which the solid turns liquid.

The values below come from paper PMC5094990, “Novel 1, 3-N, O-Spiroheterocyclic compounds inhibit heparanase activity and enhance nedaplatin-induced cytotoxicity in cervical cancer cells” (Oncotarget, 2016).

Series [1] addresses T1, human recombinant HPA (Homo sapiens, UniProt Q9Y251).
T1 sequence (Q9Y251 158-543 limits assumed): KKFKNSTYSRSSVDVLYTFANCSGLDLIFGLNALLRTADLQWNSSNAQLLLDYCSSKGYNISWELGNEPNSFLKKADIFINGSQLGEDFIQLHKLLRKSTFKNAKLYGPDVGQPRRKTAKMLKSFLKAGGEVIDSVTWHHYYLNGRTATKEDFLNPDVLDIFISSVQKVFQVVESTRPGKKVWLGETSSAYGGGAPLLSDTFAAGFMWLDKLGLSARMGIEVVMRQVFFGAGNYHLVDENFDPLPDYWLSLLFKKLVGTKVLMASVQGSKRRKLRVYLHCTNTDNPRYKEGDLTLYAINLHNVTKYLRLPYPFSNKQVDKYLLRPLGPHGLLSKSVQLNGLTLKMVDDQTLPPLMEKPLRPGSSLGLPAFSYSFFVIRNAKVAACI
T1 sequence (Q9Y251 36-109 limits assumed): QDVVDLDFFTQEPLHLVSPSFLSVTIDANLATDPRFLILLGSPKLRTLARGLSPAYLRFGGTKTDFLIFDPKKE
The series is described as follows: Detection of HPA activity inhibition (Heparan Degrading Enzyme Assay Kit). The class given is biochemical. The settings on record: 31 mIU human recombinant HPA, 37°C, 45 minutes; read-out: IC50, inhibitory effect on heparanase activity. On the procedure: The final reaction volume of each vial was 100 μl. […] Then, 100 μl of terminating liquid was added into each well. OD values were examined at a wavelength of 450 nm. Each concentration was tested in three separate wells. GraphPad Prism 5 (GraphPad Prism Software Inc., San Diego) was used to calculate the inhibitory IC50 values.

Series [2] deals with HeLa cells. The series is described as follows: MTT assay, growth inhibition of HeLa cells. The class given is cell-based, human. The note with it: Homo sapiens, HeLa; for inhibition at 1 µM / inhibition at 5 µM / inhibition at 15 µM / inhibition at 30 µM / inhibition at 60 µM / inhibition at 120 µM / inhibition at 180 µM / inhibition at 240 µM: 48 hs, mean ± s, read-out: Growth inhibition rate in HeLa cells; for IC50: 48 hours, MTT, read-out: IC50, growth inhibition of HeLa cells. Here is the method:
Cells were cultured in improved medium supplemented with 10% FBS and kept at 37°C in a […] humidified atmosphere containing 5% CO2. Logarithmic phase cells were used for the experiment and were treated with different concentrations of different medications for different amounts of time. […] Inhibitors were made into 10 mM stock solutions with DMSO, filtered, and kept at room temperature away from light. These inhibitor stock solutions were diluted to the required concentration (1, 5, 15, 30, 60, 120, 180, or 240 μM) before every experiment. The final doses of nedaplatin were […]. In order to determine whether an HPA inhibitor sensitized cells to nedaplatin, 10 μM of inhibitor number 16 (No. 16) was added into each experimental well with nedaplatin.
200 μl of single-cell suspension at a density of 5 × 10^4 cells/ml was seeded into 96-well plates. When cells were adherent, the medium was replaced with 200 μl of medium containing different concentrations of inhibitor or nedaplatin, and the cells were further incubated for 24 hours to 96 hours respectively. 20 μl MTT solution ([…] in phosphate buffered saline (PBS)) was added to each well 4 hours before the treatment ended. The cells were then incubated for another 4 hours, after which the supernatants were removed. The cells were totally solubilized in 150 μl DMSO. OD values were measured at the wavelength of 492 nm with a reference wavelength of 630 nm. Inhibition rate (IR) in the cells was calculated as follows: IR = ((OD2-OD0)-(OD1-OD0))/(OD2-OD0) × 100%, where OD0 was the OD value of blank wells, OD2 was the value of normal control wells, and OD1 was the value of experimental wells. Each condition was replicated in six separate wells.
(In general: Tetrazolium dyes change colour on reduction, which living cells bring about.)

Compound `COc1ccc(C2CNC(c3ccc(C)cc3)OC23CCCCC3)cc1` (stereo not drawn) [No. 20] returned a melting point of 105.4 to 106.7 °C. For the same compound, the IC50 in series [1] turned out to be 14.1 µM. Further, in series [2], the inhibition at 1 µM worked out at 5.01 ± 0.247%, the inhibition at 5 µM turned out to be 5.02 ± 0.0834%, the inhibition at 15 µM worked out at 13.3 ± 0.32% and the inhibition at 30 µM was 19.4 ± 1.34%. In series [2], the inhibition at 60 µM was found to be 38.49 ± 0.255%, the inhibition at 120 µM came out at 66.3 ± 1.14%, the inhibition at 180 µM was determined as 90.5 ± 1.12% and the inhibition at 240 µM stood at 95.44 ± 0.525%. For the same compound, the IC50 in series [2] was determined as 77.6 µM.
The compound `COc1ccc(C2CNC(c3ccc([N+](=O)[O-])cc3)OC23CCCCC3)cc1` (stereo not drawn) [No. 15] registered a melting point of 111.3 to 112.5 °C. Also, the IC50 in series [1] turned out to be 28.8 µM. In addition, in series [2], the inhibition at 1 µM amounted to 9.12 ± 0.166%, the inhibition at 5 µM turned out to be 17 ± 0.732%, the inhibition at 15 µM was 25.2 ± 0.947% and the inhibition at 30 µM was found to be 33.2 ± 2.34%. In series [2], the inhibition at 60 µM came to 36.2 ± 0.592%, the inhibition at 120 µM amounted to 77.5 ± 3.82%, the inhibition at 180 µM was 92.4 ± 3.08% and the inhibition at 240 µM stood at 95.2 ± 3.11%. Further, the half-inhibitory concentration (IC50) in series [2] came to 80 µM.
Regarding `COc1ccc(C2CNC(c3c(F)cccc3F)OC23CCCCC3)cc1` (stereo not drawn), the melting point was in the range of 131.7 to 132.6 °C.
Take `COc1ccc(C2CNC(c3ccc(F)cc3F)OC23CCCCC3)cc1` (stereo not drawn) [No. 22]: the melting point lay within 128.7 to 129.6 °C. Moreover, in series [2], the inhibition at 1 µM is -3.13 ± 0.705%, the inhibition at 5 µM was -0.339 ± 0.0726%, the inhibition at 15 µM is 4.27 ± 0.729% and the inhibition at 30 µM came out at 22.1 ± 0.976%. In series [2], the inhibition at 60 µM came to 36.13 ± 0.285%, the inhibition at 120 µM came out at 66 ± 0.898%, the inhibition at 180 µM worked out at 93.9 ± 1.67% and the inhibition at 240 µM turned out to be 95.18 ± 0.39%. The IC50 in series [2] worked out at 75.2 µM.
